Measurements: patent US6544727B1, “Methods and devices for the removal of psoralens from blood products” (Cerus Corporation, priority 1995, dated 2003)
Where “and” joins values, the source holds several entries; their conditions need not be identical. Equal values may be shown once. Entries after “also recorded” stand apart in the source; their conditions may differ. Read-outs that look alike come from different tables or passages of the source.

How the values were obtained:
[1] = system: Salmonella tester strain TA1538
In short: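 Pre-incubation Ames method: overnight culture plus 10% Aroclor 1254-induced rat liver S-9 mix or 0.2M phosphate buffer pH 7.4, with test solutions of 0–500 μg/mL, shaken 20 min at 37° C. Plated in histidine/biotin top agar on minimal glucose agar, revertant colonies counted after 44 h at 37° C against spontaneous-revertant background.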

[2] = system: Salmonella tester strain TA1537; assay: Ames test, strain TA1537; conditions: TA1537 + S9; 100 μg/plate
Description: In this example the compounds of the present invention are tested for their dark mutagenicity using an Ames assay. The procedures used for the Salmonella mutagenicity test as described in detail by Maron and Ames were followed exactly. Maron, D. M. and B. N. Ames, Mutation Research 113: 173 ( 1983). A brief description for each procedure is given here. The tester strains TA97a, TA98, TA100, TA102, TA1537 and TA1538 were obtained from Dr. Ames. TA97a, TA98, TA1537 and TA1538 are frameshift tester strains. TA100 and TA102 are base-substitution tester strains. Upon receipt each strain was cultured under a variety of conditions to confirm the genotypes specific to the strains.
The first tests done with the strains were to determine the range of spontaneous reversion for each of the strains. With each mutagenicity experiment the spontaneous reversion of the tester strains to histidine independence was measured and expressed as the number of spontaneous revertants per plate. This served as the background controls.
For all experiments, the pre-incubation procedure was used. In this procedure one vial of each tester strain was thawed and 20 μL of this culture was added to 6 mL of Oxoid Nutrient Broth #2. This solution was allowed to shake for 10 hours at 37° C. In the pre-incubation procedure, 0.1 mL of this overnight culture was added to each of the required number of sterile test tubes. To half of the tubes 0.5 mL of a 10% S-9 solution containing Aroclor 1254 induced rat liver extract (Molecular Toxicology Inc., Annapolis, Md.), and MgCl2, KCl, glucose-6-phosphate, NADP, and sodium phosphate buffer (Sigma, St. Louis, Mo.) were added. To the other half of the tubes 0.5 mL of 0.2M sodium phospate buffer, pH 7.4, was used in place of the S-9 mixture (the—S9samples). Finally 0.1 mL of the test solution containing either 0, 0.1, 0.5, 1, 5, 10, 50, 100, 250, or 500 μg/mL of the test compound was added. The 0.7 mL mixture was vortexed and then pre-incubated while shaking for 20 minutes at 37° C. After shaking, 2 mL of molten top agar supplemented with histidine and biotin were added to the 0.7 mL mixture and immediately poured onto a minimal glucose agar plate (volume of base agar was 20 mL). The top agar was allowed 30 minutes to solidify and then the plates were inverted and incubated for 44 hours at 37° C. After incubation the number of revertant colonies on each plate were counted. […] (“n” represents the number of replicates performed for each data point.)

[3] = system: HIV-1; conditions: 1 minute irradiation
Description: As in the R17 assay, small aliquots of the compounds listed in TABLES 10 and 11, below, at the concentrations listed in the table, were added to stock HIV-1 to a total of 0.5 mL. The stock HIV (10^5−10^7 plaque forming units/mL) was in DMEM15% FBS. […] Controls included HIV-1 stock only, HIV-1 plus UVA only, and HIV-1 plus the highest concentration of each psoralen tested, with no UVA. Post irradiation, all samples were store frozen at −70° C. until assayed for infectivity by a microtiter plaque assay. Aliquots for measurement of residual HIV infectivity in the samples treated with a compound of the present invention were withdrawn and cultured.
Residual HIV infectivity was assayed using an MT-2 infectivity assay. […] The assay medium was 85% DMEM (with a high glucose concentration) containing 100 μg of streptomycin, 100 U of penicillin, 50 μg of gentamicin, and 1 μg of amphotericin B per mL, 15% FBS and 2 μg of Polybrene (Sigma Chemical Co., St. Louis, Mo.) per mL. Test and control samples from the inactivation procedure were diluted in 50% assay medium and 50% normal human pooled plasma The samples were serially diluted directly in 96-well plates (Corning Glass Works, Corning, N.Y.). The plates were mixed on an oscillatory shaker for 30 seconds and incubated at 37° C. in a 5% CO2 atmosphere for 1 to 18 hours. […] After an additional 1 hour of incubation at 37° C. in 5% CO2, 0.075 mL of assay medium containing 1.6% SeaPlaque agarose (FMC Bioproducts, Rockland, Me.) and prewarmed to 38.5° C. was added to each well. The plates were kept at 37° C. for a few minutes until several plates had accumulated and then centrifuged in plate carriers at 600×g for 20 minutes in a centrifuge precooled to 10° C. In the centrifuge, cell monolayers formed prior to gelling of the agarose layer. The plates were incubated for 5 days at 37° C. in 5% CO2 and stained by the addition of 0.05 mL of 50 μg/mL propidium iodide (Sigma Chemical Co.) in phosphate-buffered saline (pH 7.4) to each well. After 24 to 48 hours, the red fluorescence-stained microplaques were visualized by placing the plates on an 8,000 μW/cm^2304 nm UV light box (Fotodyne, Inc., New Berlin, Wis.). The plaques were counted at a magnification of x20 to x25 through a stereomicroscope.

[4] = system: mouse reticulocytes; conditions: for PCE/RBC (%): tail vein, once per day for four days, blood on day 5
In short: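 Male Balb/c mice, at least 3 per dose, received compound i.v. by tail vein once daily for 4 days, with dose levels raised in repeats up to 5 g/kg at most. Blood smears taken on day 5 and stained with acridine orange. Read-outs: %reticulocytes per 5000 erythrocytes for bone marrow toxicity and %micronucleated reticulocytes per 1000 reticulocytes for clastogenicity.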

[5] = system: Salmonella typhimurium tester strains; assay: Ames Salmonella dark mutagenicity test, overall assessment; type: cell-based; conditions: two-fold or greater increase in revertants above background and dose dependence
Description: A brief description for each procedure is given here. […] TA97a, TA98, TA1537 and TA1538 are frameshift tester strains. TA100 and TA102 are base-substitution tester strains.
This served as the background controls.
For all experiments, the pre-incubation procedure was used.

[6] = system: platelets; assay: Platelet count, Sysmex cell counter; type: cell-based, human; conditions: 100 μM compound, 5 Joules/cm^2, Day 5; FIGS. 21A-24A
Description: Samples were diluted 1:3 in blood bank saline.

## Cc1oc2c(C)c3oc(=O)cc(C)c3cc2c1CNCCCCN [Compound 6, 4′-(6-amino-2-aza)hexyl-4,5′,8-trimethylpsoralen]
[1]; TA1538 + S9, 50 μg/plate
  revertant colonies per plate: 24
[1]; TA1538 + S9, 100 μg/plate
  revertant colonies per plate: −2
[1]; TA1538 + S9, 250 μg/plate
  revertant colonies per plate: −38
[1]; TA1538 − S9, 50 μg/plate
  revertant colonies per plate: 2
[1]; TA1538 − S9, 100 μg/plate
  revertant colonies per plate: −18
[2]
  revertant colonies per plate: 20 and 35
[3]; 16 μM, starting titer approximately 5 logs (Table 10)
  HIV Log Kill: 2.0 log
[3]; 16 μM, starting titer approximately 5.4 logs (Table 11)
  HIV Log Kill: 2.1 log
[3]; 32 μM, starting titer approximately 5 logs (Table 10)
  HIV Log Kill: 3.1 log
[3]; 32 μM, starting titer approximately 5.4 logs (Table 11)
  HIV Log Kill: 3.2 log
[3]; 64 μM, starting titer approximately 5 logs (Table 10)
  HIV Log Kill: >3.8 log
[3]; 64 μM, starting titer approximately 5.4 logs (Table 11)
  HIV Log Kill: >2.8 log
[4]; 30 mg/kg
  PCE/RBC (%): 3.61 ± 0.12%
[4]; 45 mg/kg
  PCE/RBC (%): 3.79 ± 0.41%
[4]; increased dose levels in male Balb/c mice
  bone marrow toxicity and micronucleus formation on dose escalation (in words): the acutely lethal dose was reached before there were any signs of bone marrow toxicity or micronucleus formation
[5]
  mutagenic response in the Ames assay (in words): no base substitution mutagenicity; also recorded: frameshift response in TA98 in the presence of S9 at concentrations of 250 μg/plate and above
[6]
  platelet count, treated against controls (in words): higher platelet count than samples treated with light alone; also recorded: counts equivalent to the 5 day control
